According to US7053077B1, “Use of biogenic estrogen sulfamates for hormone replacement therapy” (Schering AG, priority 1998, dated 2006):

Columns and labels:
[1] = system: liver; details: relative to anti-gonadotropic properties; cited from earlier work
[2] = women; cited from earlier work
[3] = system: bone; details: postmenopausal women, very high oral dosages; cited from earlier work
[4] = system: bone; details: uniform active ingredient levels maintained in the blood; cited from earlier work
[5] = system: ovariectomized rats; assay: Oral estrogenic action in ovariectomized rats; type: in vivo
Description: (§1) These release-processes were ended after 24 hours.

[6] = Blood levels of estradiol and estrone in ovariectomized rats after oral treatment; type: in vivo
Description: as §1

[7] = Plasma estrogen levels after one-time oral administration in postmenopausal women; type: in vivo
From the text: A “pool” of estrone sulfate is produced in the blood by EV. From the latter is released estrone by hydrolysis, a small proportion of which is in turn metabolized into estradiol. […] Estrone sulfate is in this case only the main metabolite of the estrogens that are produced from the sulfamate.

[8] = Description: In the examples below, the determination of the plasma levels of the estrogens with validated methods that are known and acknowledged in the art was performed.
[9] = system: endometrium; assay: Growth effect on the endometrium after daily low-dose treatment; type: in vivo, postmenopausal women; details: daily 0.1 mg, at the end of treatment

C#C[C@]1(O)CC[C@H]2[C@@H]3CCc4cc(O)ccc4[C@H]3CC[C@@]21C [EE, ethinylestradiol]
estrogenic activity in the liver compared with orally administered natural estrogens [1]: 4–18 times

C[C@]12CC[C@@H]3c4ccc(O)cc4CC[C@H]3[C@@H]1C[C@@H](O)[C@@H]2O [estriol]
half-life [2]: 1.5 to 5.3 h
osteoprotective effect [3]: not osteoporectively effective
action in the bone after ovariectomy [4]: protective action in the bone

estradiol sulfamate
oral estrogenic action ([5]; oral treatment): strong oral estrogenic action
extension of the estrogen actions ([5]; very high dosages): did not result in an extension of the estrogen actions
blood levels of estradiol and estrone in comparison to estradiol in an equimolar dose [6]: higher and prolonged blood levels of estradiol and estrone
end of release processes (estradiol, estrone) [6]: ≤ 24 h
estrone levels 24 hours after administration ([7]; one-time oral 2 mg, 24 hours, postmenopausal women): higher after estradiol sulfamate than after EV
estrone sulfate levels 48 hours after administration ([7]; one-time oral 2 mg, 48 hours, postmenopausal women): higher after estradiol sulfamate than after EV
estradiol blood levels one week after treatment ([7]; one-time oral 2 mg, one week, postmenopausal women): clearly exceed the starting values
increase of estrone sulfate levels in plasma ([7]; one-time oral 2 mg, postmenopausal women (FIG. 1)): increase
increase of estrone levels in plasma ([7]; one-time oral 2 mg, postmenopausal women (FIG. 2)): persists for a long time
level of estrogen sulfate in comparison to EV ([7]; oral use (FIG. 4)): very low in comparison to EV
release (surface under the curve) of estrone ([7]; oral use, compared with EV (FIG. 4)): altogether higher release
average estrone sulfate levels ([7]; three postmenopausal women, one-time 2 mg, over 600 hours (FIG. 5)): clear increase compared to the starting values
estrone sulfate increase compared with transdermal therapy ([7]; women, oral): behave comparably
induced estrone sulfate levels relative to estradiol valerate ([7]; women, oral, at comparable estrone and estradiol levels in the blood): about 10 times lower
persistence of estrone sulfate increase in plasma after the last administration ([8]; daily 0.1 mg, after last of 14 administrations): had not yet disappeared even after six days
estrone levels in the plasma ([8]; in vivo): Relevant elevated estrone levels
estrone sulfate level at the end of the treatment ([8]; in vivo): clear increases
estrone sulfate level in the first 24 hours after beginning of treatment ([8]; in vivo): no clear increases
growth effect on the endometrium relative to the starting value [9]: considerable growth effect on the endometrium
